# Results: ChEMBL document CHEMBL5543081, “Design, synthesis and evaluation of antioxidant and anti-inflammatory activities of novel resveratrol derivatives as potential multifunctional drugs” (Eur J Med Chem, 2024)
# Activity calls are given as the source filed them. No cut-off for these calls is given here.
# Tests used:
# [1] = Antioxidant activity assessed as FRAP radical scavenging activity by measuring reduction of Fe3+ complex to Fe2+ analogue incubated for 30 mins by FRAP assay; type: functional
# [2] = Antioxidant activity assessed as ABTS radical scavenging activity after 20 mins; type: functional
# [3] = Antioxidant activity assessed as DPPH radical scavenging activity measured for 30 mins by spectrophotometric analysis; type: functional
# RAW264.7 [4] = test: Antiinflammatory activity in LPS-stimulated mouse RAW264.7 cells assessed as effect on ERK phosphorylation level preincubated for 4 hrs followed by LPS stimulation for 12 hrs by Western blot analysis; type: functional, cell-based; conditions: time 16.0 hrs
# RAW264.7 [5] = test: Protection against H2O2 induced apoptosis in mouse RAW264.7 cells assessed as decrease in cleaved caspase-3 expression at 10 uM by Western blot analysis; type: functional, cell-based
# RAW264.7 [6] = test: Protection against H2O2 induced apoptosis in mouse RAW264.7 cells assessed as cell apoptosis rate at 10 uM preincubated for 3 hrs with compound followed by H2O2 stimulation and measured after 3 hrs by annexin V-FITC and PI staining based flow cytometry analysis; type: functional; conditions: time 6.0 hrs
# RAW264.7 [7] = test: Effect on KEAP1 level in H2O2 induced mouse RAW264.7 cells at 2.5 to 10 uM by Western blot analysis; type: functional, cell-based; conditions: dose 2.5-10 µM
# RAW264.7 [8] = test: Upregulation of Nrf2 expression in H2O2 induced mouse RAW264.7 cells at 10 uM by Western blot analysis; type: functional, cell-based
# RAW264.7 [9] = test: Protection against H2O2 induced apoptosis in mouse RAW264.7 cells assessed as decrease in cleaved PARP expression at 10 uM by Western blot analysis; type: functional, cell-based
# RAW264.7 [10] = test: Cytotoxicity against mouse RAW264.7 cells at 10 uM measured after 24 hrs by MTT assay relative to control; type: functional
# RAW264.7 [11] = test: Antiinflammatory activity against mouse RAW264.7 cells assessed as inhibition of LPS-induced NO production at 10 uM preincubated for 4 hrs with compound followed by LPS stimulation and measured after 12 hrs; type: functional, cell-based; conditions: time 16.0 hrs
# RAW264.7 [12] = test: Upregulation of Nrf2 expression in H2O2 induced mouse RAW264.7 cells by Western blot analysis; type: functional, cell-based; conditions: dose 2.5-10 µM
# RAW264.7 [13] = test: Upregulation of CAT mRNA expression in H2O2 induced mouse RAW264.7 cells at 2.5 to 10 uM by RT-qPCR analysis; type: functional, cell-based; conditions: dose 2.5-10 µM
# RAW264.7 [14] = test: Protection against H2O2 induced apoptosis in mouse RAW264.7 cells assessed as cell apoptosis rate at 10 uM preincubated for 3 hrs with compound followed by H2O2 stimulation and measured after 3 hrs by annexin V-FITC and PI staining based flow cytometry analysis (reference value: 15.63%); type: functional; conditions: time 6 hrs
# RAW264.7 [15] = test: Inhibition of H2O2 induced ROS production in mouse RAW264.7 cells assessed as decrease in ROS level preincubated for 3 hrs followed by H2O2 addition and measured after 3 hrs DCFH-DA staining based flow cytometry analysis; type: functional, cell-based; conditions: dose 2.5-10 µM, time 6.0 hrs
# RAW264.7 [16] = test: Upregulation of HO-1 mRNA expression in H2O2 induced mouse RAW264.7 cells at 2.5 to 10 uM by RT-qPCR analysis; type: functional, cell-based; conditions: dose 2.5-10 µM
# RAW264.7 [17] = test: Antiinflammatory activity in LPS-stimulated mouse RAW264.7 cells assessed as reduction in iNOS mRNA expression preincubated for 4 hrs followed by LPS stimulation for 12 hrs by RT-qPCR analysis; type: functional, cell-based; conditions: dose 2.5-10 µM, time 16.0 hrs
# RAW264.7 [18] = test: Antiinflammatory activity in LPS-stimulated mouse RAW264.7 cells assessed as inhibition of JNK phosphorylation level preincubated for 4 hrs followed by LPS stimulation for 12 hrs by Western blot analysis; type: functional, cell-based; conditions: dose 2.5-10 µM, time 16.0 hrs
# RAW264.7 [19] = test: Upregulation of SOD mRNA expression in H2O2 induced mouse RAW264.7 cells at 2.5 to 10 uM by RT-qPCR analysis; type: functional, cell-based; conditions: dose 2.5-10 µM
# RAW264.7 [20] = test: Upregulation of HO-1 protein level in H2O2 induced mouse RAW264.7 cells at 2.5 to 10 uM by Western blot analysis; type: functional, cell-based; conditions: dose 2.5-10 µM
# RAW264.7 [21] = test: Antiinflammatory activity in LPS-stimulated mouse RAW264.7 cells assessed as reduction in NF-kappaB p65 phosphorylation level at 10 uM preincubated for 4 hrs followed by LPS stimulation for 12 hrs by Western blot analysis; type: functional, cell-based; conditions: time 16.0 hrs
# RAW264.7 [22] = test: Upregulation of GPx mRNA expression in H2O2 induced mouse RAW264.7 cells at 2.5 to 10 uM by RT-qPCR analysis; type: functional, cell-based; conditions: dose 2.5-10 µM
# RAW264.7 [23] = test: Antiinflammatory activity in LPS-stimulated mouse RAW264.7 cells assessed as inhibition of p38 phosphorylation level preincubated for 4 hrs followed by LPS stimulation for 12 hrs by Western blot analysis; type: functional, cell-based; conditions: dose 2.5-10 µM, time 16.0 hrs
# RAW264.7 [24] = test: Inhibition of H2O2 induced ROS production in mouse RAW264.7 cells assessed as decrease in ROS level at 10 uM preincubated for 3 hrs followed by H2O2 addition and measured after 3 hrs DCFH-DA staining based flow cytometry analysis; type: functional, cell-based; conditions: time 6.0 hrs
# RAW264.7 [25] = test: Antiinflammatory activity in LPS-stimulated mouse RAW264.7 cells assessed as reduction in iNOS level preincubated for 4 hrs followed by LPS stimulation for 12 hrs by Western blot analysis; type: functional, cell-based; conditions: dose 2.5-10 µM, time 16.0 hrs
SMILES,Activity [1],IC50 [2],IC50 [3],other results
O=C(N/N=C\c1c(O)cc(O)cc1/C=C/c1ccc(O)cc1)c1ccccc1F,1 µM,17.3 µM,97.8 µM,
Oc1ccc(/C=C/c2cc(O)cc(O)c2)cc1 [RESVERATROL],0.9 µM,18.4 µM,86.6 µM,Activity (RAW264.7 [4]): inactive; Activity (RAW264.7 [5]): inactive; Activity (RAW264.7 [6]): inactive; Activity (RAW264.7 [7]): inactive; Activity (RAW264.7 [8]): inactive; Activity (RAW264.7 [9]): inactive
O=C(N/N=C\c1c(O)cc(O)cc1/C=C/c1ccc(O)cc1)c1cccnc1,1.2 µM,12.7 µM,89.5 µM,Activity (RAW264.7 [10]): >80%
O=C(N/N=C\c1c(O)cc(O)cc1/C=C/c1ccc(O)cc1)c1ccccc1O,0.9 µM,12.8 µM,37.8 µM,
Nc1ccc(C(=O)N/N=C\c2c(O)cc(O)cc2/C=C/c2ccc(O)cc2)cc1,2.2 µM,9.7 µM,46.2 µM,Activity (RAW264.7 [10]): >80%
O=C(N/N=C\c1c(O)cc(O)cc1/C=C/c1ccc(O)cc1)c1ccc(Cl)cc1,0.7 µM,17.9 µM,89.5 µM,
O=C(N/N=C\c1c(O)cc(O)cc1/C=C/c1ccc(O)cc1)c1cccc(O)c1,1.3 µM,11.7 µM,76.6 µM,Activity (RAW264.7 [10]): >80%; Activity (RAW264.7 [11]): Active
O=C(N/N=C\c1c(O)cc(O)cc1/C=C/c1ccc(O)cc1)c1ccc(Br)cc1,0.5 µM,13 µM,84 µM,
O=C(N/N=C\c1c(O)cc(O)cc1/C=C/c1ccc(O)cc1)c1cccc([N+](=O)[O-])c1,0.4 µM,11.6 µM,79.9 µM,
Cc1c(C)c2c(c(C)c1O)CCC(C)(C(=O)O)O2 (stereo not given) [TROLOX],2.5 µM,14.7 µM,32.7 µM,
O=C(N/N=C\c1c(O)cc(O)cc1/C=C/c1ccc(O)cc1)c1cccc(F)c1,0.8 µM,12.5 µM,82.6 µM,
O=C(N/N=C\c1c(O)cc(O)cc1/C=C/c1ccc(O)cc1)c1ccc(F)cc1,0.8 µM,15.7 µM,86.3 µM,
O=C(N/N=C\c1c(O)cc(O)cc1/C=C/c1ccc(O)cc1)c1ccc(O)cc1,1.1 µM,13 µM,69.9 µM,Activity (RAW264.7 [4]): inactive; Activity (RAW264.7 [12]): Dose-Dependent Effect; Activity (RAW264.7 [13]): inactive; Activity (RAW264.7 [5]): Active; Activity (RAW264.7 [14]): 26.58%; inhibition (RAW264.7 [15]): Dose-Dependent Effect; Activity (RAW264.7 [16]): Active; Activity (RAW264.7 [17]): Dose-Dependent Effect; Activity (RAW264.7 [18]): Dose-Dependent Effect; Activity (RAW264.7 [10]): >80%; Activity (RAW264.7 [19]): inactive; Activity (RAW264.7 [20]): Active; Activity (RAW264.7 [7]): inactive; Activity (RAW264.7 [21]): Active; Activity (RAW264.7 [22]): inactive; Activity (RAW264.7 [23]): Dose-Dependent Effect; inhibition (RAW264.7 [24]): Active; Activity (RAW264.7 [25]): Dose-Dependent Effect; Activity (RAW264.7 [9]): Active; Activity (RAW264.7 [11]): Active
O=C(N/N=C\c1c(O)cc(O)cc1/C=C/c1ccc(O)cc1)c1ccccn1,0.9 µM,17.1 µM,98.3 µM,Activity (RAW264.7 [10]): >80%; inhibition (RAW264.7 [24]): Active; Activity (RAW264.7 [11]): Active
O=C(N/N=C\c1c(O)cc(O)cc1/C=C/c1ccc(O)cc1)c1cccc(Cl)c1,0.9 µM,15.2 µM,81.9 µM,
Cc1ccccc1C(=O)N/N=C\c1c(O)cc(O)cc1/C=C/c1ccc(O)cc1,0.4 µM,17.2 µM,97.3 µM,
Nc1ccccc1C(=O)N/N=C\c1c(O)cc(O)cc1/C=C/c1ccc(O)cc1,1.5 µM,8.5 µM,39.8 µM,
Cc1cccc(C(=O)N/N=C\c2c(O)cc(O)cc2/C=C/c2ccc(O)cc2)c1,0.9 µM,18 µM,80.8 µM,
Cc1ccc(C(=O)N/N=C\c2c(O)cc(O)cc2/C=C/c2ccc(O)cc2)cc1,0.5 µM,15.7 µM,87 µM,
O=C(N/N=C\c1c(O)cc(O)cc1/C=C/c1ccc(O)cc1)c1ccccc1,0.7 µM,13.4 µM,84.4 µM,
N#Cc1ccc(C(=O)N/N=C\c2c(O)cc(O)cc2/C=C/c2ccc(O)cc2)cc1,0.6 µM,18.2 µM,84 µM,
O=C(N/N=C\c1c(O)cc(O)cc1/C=C/c1ccc(O)cc1)c1ccncc1,1.1 µM,13.5 µM,104 µM,Activity (RAW264.7 [10]): >80%
